# Source: patent publication US6706740B2, “Fungicidal heterocyclic aromatic amides and their compositions, methods of use and preparation” (Dow AgroSciences LLC, priority 1999, dated 2004)
# Where two headings read alike, the source gives them in different places.
# Columns and labels:
# [1] = tested on: Mycosphaerella graminicola (Septoria tritici—SEPTTR); test: In vitro fungal growth inhibition, Mycosphaerella graminicola (SEPTTR); assay type: cell-based; details: Zymoseptoria tritici, read-out: SEPTTR in vitro Growth Inhibition
# [2] = tested on: Leptosphaeria nodorum—LEPTNO; test: Glume Blotch of Wheat, in vivo whole plant, 24 Hour Protectant; details: 100 ppm spray, wheat, 24 hour protectant, control of fungal infection vs untreated plants; for pest or weed control at 100 ppm: Leptosphaeria, read-out: LEPTNO in vivo 1 Day Protectant
# Ustilago maydis (USTIMA) = test: microbe, parasite or virus in culture; assay type: cell-based; details: Mycosarcoma maydis, read-out: USTIMA in vitro Growth Inhibition
# [3] = tested on: Rhizoctonia solani (RHIZSO); test: microbe, parasite or virus in culture; assay type: cell-based; details: Rhizoctonia solani, read-out: RHIZSO in vitro Growth Inhibition
# [4] = tested on: Stagonospora nodorum (Leptosphaeria nodorum—LEPTNO); test: In vitro fungal growth inhibition, Stagonospora nodorum (LEPTNO); assay type: cell-based; details: Leptosphaeria, read-out: LEPTNO in vitro Growth Inhibition
# [5] = tested on: Puccinia recondita—PUCCRT; test: Brown Rust of Wheat, in vivo whole plant, 24 Hour Protectant; details: 100 ppm spray, wheat, 24 hour protectant, control of fungal infection vs untreated plants; for pest or weed control at 100 ppm: Puccinia, read-out: PUCCRT in vivo 1 Day Protectant
# Erysiphe graminis—ERYSGT = test: Powdery Mildew of Wheat, in vivo whole plant, 24 Hour Protectant; details: Erysiphe; 100 ppm spray, wheat, 24 hour protectant; control of fungal infection vs untreated plants; read-out: ERYSGT in vivo 1 Day Protectant
# Septoria tritici—SEPTTR = test: Leaf Blotch of Wheat, in vivo whole plant, 24 Hour Protectant; details: 100 ppm spray, wheat, 24 hour protectant, control of fungal infection vs untreated plants; for pest or weed control at 100 ppm: Zymoseptoria tritici, 24 h, read-out: SEPTTR in vivo 1 Day Protectant
# [6] = tested on: Phytophthora infestans—PHYTIN; test: whole plant or invertebrate; assay type: in vivo; details: Phytophthora, in Solanum lycopersicum, 24 h, read-out: PHYTIN in vivo 1 Day Protectant
# [7] = tested on: Magnaporthe grisea (Pyricularia oryzae—PYRIOR); test: microbe, parasite or virus in culture; assay type: cell-based; details: Pyricularia oryzae, read-out: PYRIOR in vitro Growth Inhibition
# [8] = tested on: Phytophthora infestans (PHYTIN); test: microbe, parasite or virus in culture; assay type: cell-based; details: Phytophthora infestans, read-out: PHYTIN in vitro Growth Inhibition
SMILES,inhibition at 25 ppm ([1]; 25 ppm in growth medium),LEPTNO in vivo 1 Day Protectant [2],inhibition at 25 ppm (Ustilago maydis (USTIMA)),inhibition at 25 ppm [3],inhibition at 25 ppm ([4]; 25 ppm in growth medium),pest or weed control at 100 ppm [5],pest or weed control at 100 ppm (Erysiphe graminis—ERYSGT),pest or weed control at 100 ppm (Septoria tritici—SEPTTR),pest or weed control at 100 ppm [6],inhibition at 25 ppm [7],inhibition at 25 ppm [8],PUCCRT in vivo 1 Day Protectant [5],SEPTTR in vivo 1 Day Protectant (Septoria tritici—SEPTTR),pest or weed control at 100 ppm [2],inhibition at 25 ppm [1],inhibition at 25 ppm [4]
COc1ccnc(C(=O)N[C@@H](Cc2ccc(OCc3ccccc3)cc2)C(=O)O)c1O [Compound 337],< 80%,+ +,< 80%,< 80%,< 80%,25 to 74%,< 25%,< 25%,< 25%,< 80%,< 80%,,,,,
COc1ccnc(C(=O)N[C@@H](Cc2ccc(OCc3ccccc3)cc2)C(=O)OCc2ccccc2)c1O [Compound 339],< 80%,+ +,< 80%,< 80%,< 80%,,< 25%,,< 25%,< 80%,< 80%,+ +,+ +,,,
COC(=O)C(CO)NC(=O)c1nccc(OC)c1O (stereo not drawn) [Compound 340],< 80%,,< 80%,< 80%,< 80%,< 25%,25 to 74%,< 25%,< 25%,< 80%,< 80%,,,25 to 74%,,
COc1ccnc(C(=O)N[C@@H](CO)C(=O)O[C@@H](C)[C@H](OC(=O)C(C)C)[C@@H](Cc2ccccc2)C(=O)O)c1O [Compound 341],< 80%,,< 80%,< 80%,< 80%,< 25%,< 25%,25 to 74%,< 25%,< 80%,< 80%,,,< 25%,,
COc1ccnc(C(=O)N[C@@H](COCc2ccccc2)C(=O)O[C@@H](C)[C@H](OC(=O)C(C)C)[C@@H](Cc2ccccc2)C(=O)OCc2ccccc2)c1O [Compound 342],< 80%,,> 80%,< 80%,< 80%,,25 to 74%,25 to 74%,< 25%,< 80%,< 80%,+ +,,25 to 74%,,
COC(=O)C(COC(=O)C(C)c1ccccc1)NC(=O)c1nccc(OC)c1O (stereo not drawn) [Compound 343],< 80%,,< 80%,< 80%,< 80%,< 25%,25 to 74%,< 25%,< 25%,< 80%,< 80%,,,25 to 74%,,
COC(=O)C(COC(=O)CCc1ccccc1)NC(=O)c1nccc(OC)c1O (stereo not drawn) [Compound 344],< 80%,,< 80%,< 80%,> 80%,< 25%,< 25%,25 to 74%,< 25%,< 80%,< 80%,,,25 to 74%,,
COC(=O)C(COC(=O)C(C)Cc1ccccc1)NC(=O)c1nccc(OC)c1O (stereo not drawn) [Compound 345],< 80%,,< 80%,< 80%,< 80%,25 to 74%,< 25%,< 25%,< 25%,< 80%,< 80%,,,< 25%,,
COC(=O)C(COC(=O)COCc1ccccc1)NC(=O)c1nccc(OC)c1O (stereo not drawn) [Compound 346],< 80%,,< 80%,< 80%,< 80%,25 to 74%,< 25%,25 to 74%,< 25%,< 80%,> 80%,,,< 25%,,
COC(=O)C(COC(=O)CC(C)OC(=O)C(C)C)NC(=O)c1nccc(OC)c1O (stereo not drawn) [Compound 347],< 80%,,< 80%,< 80%,< 80%,25 to 74%,< 25%,< 25%,< 25%,< 80%,< 80%,,,25 to 74%,,
COC(=O)C(COC(=O)C(COC(=O)C(C)C)Cc1ccccc1)NC(=O)c1nccc(OC)c1O (stereo not drawn) [Compound 349],< 80%,,< 80%,< 80%,< 80%,,< 25%,< 25%,< 25%,< 80%,< 80%,+ +,,< 25%,,
COc1ccnc(C(=O)NC(COC(=O)C(C)Cc2ccccc2)C(=O)OC(C)C)c1O (stereo not drawn) [Compound 351],< 80%,,> 80%,< 80%,< 80%,,< 25%,< 25%,< 25%,< 80%,< 80%,+ +,,25 to 74%,,
COc1ccnc(C(=O)NC(COC(=O)CC(C)OC(=O)C(C)C)C(=O)OC(C)C)c1O (stereo not drawn) [Compound 352],< 80%,,< 80%,< 80%,< 80%,25 to 74%,< 25%,< 25%,< 25%,< 80%,< 80%,,,< 25%,,
COc1ccnc(C(=O)NC(COC(=O)CC(C)OC(=O)CCc2ccccc2)C(=O)OC(C)C)c1O (stereo not drawn) [Compound 353],< 80%,,< 80%,< 80%,< 80%,,< 25%,< 25%,< 25%,< 80%,< 80%,+ +,,< 25%,,
COc1ccnc(C(=O)NC(COC(=O)CC(C)O[Si](C)(C)C(C)(C)C)C(=O)OC(C)C)c1O (stereo not drawn) [Compound 354],,,< 80%,< 80%,,,25 to 74%,< 25%,< 25%,< 80%,< 80%,+ +,,< 25%,< 80%,< 80%
COc1ccnc(C(=O)NC(COC(=O)C(Cc2ccccc2)C(C)OC(=O)C(C)C)C(=O)OC(C)C)c1O (stereo not drawn) [Compound 355],< 80%,,< 80%,< 80%,< 80%,25 to 74%,< 25%,< 25%,< 25%,< 80%,< 80%,,,< 25%,,
COc1ccnc(C(=O)NC(COC(=O)C(Cc2ccccc2)C(C)OC(=O)c2ccccc2)C(=O)OC(C)C)c1O (stereo not drawn) [Compound 356],< 80%,,< 80%,< 80%,< 80%,25 to 74%,< 25%,25 to 74%,< 25%,< 80%,< 80%,,,25 to 74%,,
COc1ccnc(C(=O)NC(COC(=O)C(Cc2ccccc2)C(C)O[Si](C)(C)C(C)(C)C)C(=O)OC(C)C)c1O (stereo not drawn) [Compound 357],,,< 80%,< 80%,,,< 25%,< 25%,< 25%,< 80%,< 80%,+ +,,25 to 74%,< 80%,< 80%
